Reference: PubChem BioAssay AID192 (DTP/NCI, 2004)
Toxic doses and inconclusive results are not listed.

Test system: BDF1 mice, B16 melanoma ip, median survival T/C
Assay: NCI In Vivo Anticancer Drug Screen. Data for tumor model B16 Melanoma (intraperitoneal) in B6D2F1 (BDF1) mice
Conditions: endpoint: median survival time, higher = longer survival
How it was run: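 Survival or tumor size is measured after treatment of tumor-bearing mice and normalised to the vehicle-treated control group.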

O=[N+]([O-])O.O=[N+]([O-])O.[NH-]C1CCCCC1[NH-].[Pt+2] (stereo unspecified)
T/C (dose: 0.25 mg/kg/injection, schedule: Q01DX009 (ip), vehicle: dextrose): 110 % of control | T/C (dose: 0.5 mg/kg/injection, schedule: Q01DX009 (ip), vehicle: dextrose): 120 % of control | T/C (dose: 1.0 mg/kg/injection, schedule: Q01DX009 (ip), vehicle: dextrose): 160 % of control | T/C (dose: 2.0 mg/kg/injection, schedule: Q01DX009 (ip), vehicle: dextrose): 183 % of control

C1CC[N-]CC1.CC(=N\O)/C(C)=N/O.CC(=N\O)/C(C)=N/O.[Co+2].[c-]1ccccc1
T/C (dose: 100.0 mg/kg/injection, schedule: Q01DX009 (ip), vehicle: Klucel (hydroxypropylcellulose) (HPC)): 90 % of control | T/C (dose: 200.0 mg/kg/injection, schedule: Q01DX009 (ip), vehicle: Klucel (hydroxypropylcellulose) (HPC)): 93 % of control | T/C (dose: 400.0 mg/kg/injection, schedule: Q01DX009 (ip), vehicle: Klucel (hydroxypropylcellulose) (HPC)): 90 % of control

CC1(C)N=C(N)N=C(N)N1c1ccc(CNC(=O)Nc2ccc(S(=O)(=O)F)cc2)cc1
T/C (dose: 50.0 mg/kg/injection, schedule: Q04DX003 (ip), vehicle: saline): 112 % of control

COc1cc(NS(C)(=O)=O)ccc1Nc1c2ccc([N+](=O)[O-])cc2nc2c(C)cccc12
T/C (dose: 0.08 mg/kg/injection, schedule: Q01DX009 (ip), vehicle: saline with Tween-80): 105 % of control | T/C (dose: 0.15 mg/kg/injection, schedule: Q01DX009 (ip), vehicle: saline with Tween-80): 107 % of control | T/C (dose: 0.6 mg/kg/injection, schedule: Q01DX009 (ip), vehicle: saline with Tween-80): 122 % of control
